Reference: ChEMBL document CHEMBL2346660, “Synthesis and biological evaluation of trans 6-methoxy-1,1-dimethyl-2-phenyl-3-aryl-2,3-dihydro-1H-inden-4-yloxyalkylamine derivatives against drug susceptible, non-replicating M. tuberculosis H37Rv and clinical multidrug resistant strains” (Bioorg Med Chem Lett, 2013)
In brackets after ≈: the same amount, converted by molar mass.

What was measured:
[1] = tested on: Mycobacterium tuberculosis; assay: Antimicrobial activity against rifampicin-resistant and INH-resistant Mycobacterium tuberculosis 1678/05 by agar dilution method and BACTEC radiometric method; assay type: functional
[2] = tested on: Mycobacterium tuberculosis; assay: Antimicrobial activity against rifampicin-resistant and INH-resistant Mycobacterium tuberculosis 2643 by agar dilution method and BACTEC radiometric method; assay type: functional

SMILES | MIC [1] | MIC [2]
COc1cc(OCCN(C(C)C)C(C)C)c2c(c1)C(C)(C)[C@H](c1ccccc1)[C@H]2c1ccccc1 (relative stereo) | 6.25 µg/mL (≈ 13.3 µM) | 6.25 µg/mL (≈ 13.3 µM)
COc1cc(OCCN2CCCCCC2)c2c(c1)C(C)(C)[C@H](c1ccccc1)[C@H]2c1c(OC)ccc2ccccc12 (relative stereo) | 3.12 µg/mL (≈ 5.68 µM) | 3.12 µg/mL (≈ 5.68 µM)
